Laboratory results taken from patent publication US11213498B2, “Aqueous formulation comprising paracetamol and ibuprofen” (Hyloris Pharmaceuticals SA, priority 2014, dated 2022).
Like-named read-outs stand apart in the source and are kept apart here.

Legend:
[1] = Amount of paracetamol at various points in time and different pH; format: physicochemical; settings: pH range 6.3-7.3, various points in time
Text: The amount of paracetamol was studied at varies points in time and for different pH's.

[2] = cited from earlier work
[3] = Dissolution of sodium ibuprofen 2H2O alone in water at gradually decreased pH (precipitation observed); format: physicochemical; settings: for Dissolved: 3.85 mg/ml alone in water; for Dissolution: in water after 1 month storage at 25° C.
Description: Precipitation of ibuprofen is observed once pH is at 5.75. The Ibuprofen solutions were stored for 1 month at 25° C. They were again observed for signs of precipitation.

[4] = Dissolution of sodium ibuprofen 2H2O in the formulation Paracetamol - Ibuprofen at varying pH; format: physicochemical
Description: In a further experiment the dissolution of sodium ibuprofen 2H2O was studied in combination with paracetamol at a concentration of 10 mg paracetamol per liter.

[5] = as above; format: physicochemical; settings: in the formulation 3 mg/ml Paracetamol 10 mg/ml Ibuprofen

SMILES: CC(=O)Nc1ccc(O)cc1 [paracetamol, N-(4-hydroxyphenyl)acetamide]
- Degradation of paracetamol [1]: minimal degradation
- pH at which rate of degradation of paracetamol is minimal ([2]; aqueous solution (Koshy et al., 1961)): ~6
- Degradation of paracetamol ([2]; at pH 7): significant

SMILES: CC(C)Cc1ccc(C(C)C(=O)O)cc1 (stereo not drawn) [sodium ibuprofen 2H2O]
- Dissolved ([3]; pH 3): No
- Dissolved ([3]; pH 4): No
- Dissolved ([3]; pH 5): No
- Dissolved ([3]; pH 5.5): No
- Dissolved ([3]; pH 5.8): Yes
- Dissolved ([3]; pH 6): Yes
- Dissolved ([3]; pH 6.2): Yes
- Dissolved ([3]; pH 6.4): Yes
- Dissolved ([3]; pH 6.6): Yes
- Dissolved ([3]; pH 6.8): Yes
- Dissolved ([3]; pH 7): Yes
- Dissolved ([3]; pH 7.5): Yes
- pH at which precipitation of ibuprofen is observed ([3]; 3.85 mg/ml in water, pH gradually decreased from 8.80): 5.75
- Dissolution ([3]; pH 5.8): No
- Dissolution ([3]; pH 6): No
- Dissolution ([3]; pH 6.2): Yes
- Dissolution ([3]; pH 6.4): Yes
- Dissolution ([3]; pH 6.6): Yes
- Dissolution ([3]; pH 6.8): Yes
- Dissolution ([3]; pH 7): Yes
- Dissolution ([3]; pH 7.5): Yes
- Precipitation ([3]; solution at pH 6, stored for 1 month at 25° C.): showed precipitation
- Precipitation ([3]; solution at pH 6.2, stored for 1 month at 25° C.): precipitation was absent
- Dissolution ([4]; 1 month storage at 25° C., pH 6.2): No
- Dissolution ([4]; 1 month storage at 25° C., pH 6.3): Yes
- Dissolution ([4]; 1 month storage at 25° C., pH 6.4): Yes
- Dissolution ([4]; 1 month storage at 25° C., pH 6.6): Yes
- Dissolution ([4]; 1 month storage at 25° C., pH 7): Yes
- Dissolution ([4]; 6 months, 25° C., pH 6.3): Yes
- Dissolution ([4]; 6 months, 25° C., pH 6.4): Yes
- Dissolution ([4]; 6 months, 25° C., pH 6.6): Yes
- Dissolution ([4]; 6 months, 25° C., pH 7): Yes
- Dissolved ([5]; pH 6.2): Yes
- Dissolved ([5]; pH 6.3): Yes
- Dissolved ([5]; pH 6.4): Yes
- Dissolved ([5]; pH 6.6): Yes
- Dissolved ([5]; pH 7): Yes

SMILES: CC(C)Cc1ccc(C(C)C(=O)O)cc1 (stereo not drawn) [Ibuprofen, 2-(p-isobutylphenyl)propionic acid]
- Precipitation of ibuprofen ([2]; at pH 5.5 to 6.0): precipitates
- Solubility in water [2]: very poorly soluble
